Experimental data taken from EP0203488A2, “7-Azolyl-1-cyclopropyl-1,4-dihydro-4-oxo-3-quinoline carboxylic acids and 1,8-naphthyridine carboxylic acids, process for their preparation and bactericidal agents containing them” (BAYER AG, priority 1985, dated 1986).
Converted amounts (≈) assume the structure as drawn.

Legend:
Experiment in all cases: Agar dilution test (Isosensitest medium), MIC
Format in all cases: cell-based
E.coli Neum. = conditions: Escherichia coli, Agardilutionstest / Isosensitestmedium, read-out: MHK-Werte
From the text: (§1) In der nachstehenden Tabelle sind die MHK-Werte einiger der erfindungsgemäßen Verbindungen im Vergleich zu Ciprofloxacin angegeben.

E.coli T 7 = conditions: Escherichia coli, T7, Agardilutionstest / Isosensitestmedium, read-out: MHK-Werte
From the text: as §1

Klebsiella pneum. 63 = conditions: Agardilutionstest / Isosensitestmedium, read-out: MHK-Werte
From the text: as §1

Klebsiella pneum. 8085 = conditions: Agardilutionstest / Isosensitestmedium, read-out: MHK-Werte
From the text: as §1

Proteus vulg. 1017 = conditions: Agardilutionstest / Isosensitestmedium, read-out: MHK-Werte
From the text: as §1

Pseudom.aerug.Ellsw. = conditions: Agardilutionstest / Isosensitestmedium, read-out: MHK-Werte
From the text: as §1

Staph. aur. 133 = conditions: Agardilutionstest / Isosensitestmedium, read-out: MHK-Werte
From the text: as §1

Staph. aur. 1756 = conditions: Agardilutionstest / Isosensitestmedium, read-out: MHK-Werte
From the text: as §1

Staph. aur. FK 422 = conditions: Agardilutionstest / Isosensitestmedium, read-out: MHK-Werte
From the text: as §1

Streptococcus faec.27101 = conditions: Agardilutionstest / Isosensitestmedium, read-out: MHK-Werte
From the text: as §1

Row | Structure (SMILES) | MIC (E.coli Neum.) [mg/L] | MIC (E.coli T 7) [mg/L] | MIC (Klebsiella pneum. 63) [mg/L] | MIC (Klebsiella pneum. 8085) [mg/L] | MIC (Proteus vulg. 1017) [mg/L] | MIC (Pseudom.aerug.Ellsw.) [mg/L] | MIC (Staph. aur. 133) [mg/L] | MIC (Staph. aur. 1756) [mg/L] | MIC (Staph. aur. FK 422) [mg/L] | MIC (Streptococcus faec.27101) [mg/L]
1 | O=C(O)c1cn(C2CC2)c2c(F)c(-n3ccnc3)c(F)cc2c1=O [Beispiel 21, 1-Cyclopropyl-6,8-difluor-1,4-dihydro-7-(1-imidazolyl)-4-oxo-3-chinolincarbonsäure] | 0.03 (≈ 0.0906 µM) | 0.03 (≈ 0.0906 µM) | 0.06 (≈ 0.181 µM) | 0.03 (≈ 0.0906 µM) | 0.125 (≈ 0.377 µM) | 0.25 (≈ 0.755 µM) | 0.125 (≈ 0.377 µM) | 0.125 (≈ 0.377 µM) | 0.125 (≈ 0.377 µM) | 0.5 (≈ 1.51 µM)
2 | O=C(O)c1cn(C2CC2)c2c(F)c(-n3cccc3)c(F)cc2c1=O [Beispiel 2, 1-Cyclopropyl-6,8-difluor-1,4-dihydro-4-oxo-7-(1-pyrrolyl)-3-chinolincarbon-säure] | 0.25 (≈ 0.757 µM) | 0.125 (≈ 0.378 µM) | 0.5 (≈ 1.51 µM) | 0.125 (≈ 0.378 µM) | 0.5 (≈ 1.51 µM) | 1 (≈ 3.03 µM) | 0.06 (≈ 0.182 µM) | 0.06 (≈ 0.182 µM) | 0.06 (≈ 0.182 µM) | 0.25 (≈ 0.757 µM)
3 | O=C(O)c1cn(C2CC2)c2c(Cl)c(-n3ccnc3)c(F)cc2c1=O [Beispiel 20, 8-Chlor-1-cyclopropyl-6-fluor-1,4-dihydro-7-(1-imidazolyl)-4-oxo-3-chinolincarbonsäure] | 0.03 (≈ 0.0863 µM) | 0.03 (≈ 0.0863 µM) | 0.25 (≈ 0.719 µM) | 0.03 (≈ 0.0863 µM) | 0.25 (≈ 0.719 µM) | 0.5 (≈ 1.44 µM) | 0.03 (≈ 0.0863 µM) | 0.03 (≈ 0.0863 µM) | 0.03 (≈ 0.0863 µM) | 0.125 (≈ 0.359 µM)
4 | O=C(O)c1cn(C2CC2)c2cc(-n3cccc3)c(F)cc2c1=O [Beispiel 1, 1-Cyclopropyl-6-fluor-1,4-dihydro-4-oxo-7-(1-pyrrolyl)-3-chino-lincarbonsäure] | 0.06 (≈ 0.192 µM) | 0.06 (≈ 0.192 µM) | 0.125 (≈ 0.4 µM) | 0.06 (≈ 0.192 µM) | 0.25 (≈ 0.801 µM) | 0.5 (≈ 1.6 µM) | 0.03 (≈ 0.0961 µM) | 0.03 (≈ 0.0961 µM) | 0.03 (≈ 0.0961 µM) | 0.25 (≈ 0.801 µM)
5 | CCn1cc(C(=O)O)c(=O)c2cc(F)c(-n3ccnc3)c(F)c21 [EP 115 049, 1-Ethyl-6,8-difluor-1,4-dihydro-7-(1-imidazolyl)-4-oxo-3-chinolincarbonsäure, reference compound] | 0.125 (≈ 0.392 µM) | 0.125 (≈ 0.392 µM) | 0.5 (≈ 1.57 µM) | 0.25 (≈ 0.783 µM) | 0.5 (≈ 1.57 µM) | 1 (≈ 3.13 µM) | 1 (≈ 3.13 µM) | 1 (≈ 3.13 µM) | 0.5 (≈ 1.57 µM) | 2 (≈ 6.26 µM)
